Laboratory results reported in paper PMC4884984, “Identification of approved and investigational drugs that inhibit hypoxia-inducible factor-1 signaling” (Oncotarget, 2016).
Like-named read-outs stand apart in the source and are kept apart here.

System: HIF-1α–NanoLuc
Experiment: HIF-1α–NanoLuc reporter gene assay (qHTS primary and confirmatory screens)
Assay type: cell-based, human
[1] = Homo sapiens, Table S2, validation, read-out: Pathway inhibitors (validation) HIF-1α–NanoLuc Activity Efficacy
[2] = Homo sapiens, Table S2, validation, read-out: Pathway inhibitors (validation) HIF-1α–NanoLuc Activity IC50
[3] = Homo sapiens, Table S2, primary screen, read-out: Pathway inhibitors (primary screen) HIF-1α–NanoLuc Activity Efficacy
[4] = Homo sapiens, Table S1, primary screen, read-out: Efficacy (primary screen, HIF-1α–NanoLuc assay)
[5] = Homo sapiens, Table S1, primary screen, hypoxia 1% O2, 18 h, read-out: IC50 (primary screen, HIF-1α–NanoLuc assay)
[6] = Homo sapiens, Table S2, primary screen, read-out: Pathway inhibitors (primary screen) HIF-1α–NanoLuc Activity IC50

For `N#Cc1c(Oc2ccc(F)c(NC(=O)Cc3cccc(C(F)(F)F)c3)c2)ccc2nc(NC(=O)C3CC3)sc12` [TAK-632], the “Pathway inhibitors (validation) HIF-1α–NanoLuc Activity Efficacy” value (Table S2, validation) was 85 ± 2% and the IC50 (Table S2, validation, read-out: Pathway inhibitors (validation) HIF-1α–NanoLuc Activity IC50) was 1.41 ± 0.23 µM.

For `CNC(=O)c1ccccc1Sc1ccc2c(/C=C/c3ccccn3)n[nH]c2c1` [Axitinib], the “Pathway inhibitors (primary screen) HIF-1α–NanoLuc Activity IC50” value (Table S2, primary screen) was “Inactive”.

`CC[C@@H]1C(=O)N(C)c2cnc(Nc3ccc(C(=O)N[C@H]4CC[C@H](N5CCN(CC6CC6)CC5)CC4)cc3OC)nc2N1C(C)C` [Volasertib] was tested, and the Emax [1] was 78 ± 14% and the IC50 [2] was 9.57 ± 5.6 µM.

`Cc1ccc(NC(=O)c2ccc(CN3CCN(C)CC3)cc2)cc1Nc1nccc(-c2cccnc2)n1` [Imatinib] gave an Emax [3] of 28%.

With `OCc1ccc(-c2nn(Cc3ccccc3)c3ccccc23)o1` [YC-1] the “Effect on HIF-1α–NanoLuc level / luciferase activity, in words” value (HCT116 reporter cells) was “decrease in luciferase expression in a concentration response manner”.

Molecule `O=C(CCCCCCC(=O)Nc1ccccc1)NO` [Vorinostat] has an Emax [4] of 51%.

For `Cc1ccc(-c2cc(C(F)(F)F)nn2-c2ccc(S(N)(=O)=O)cc2)cc1` [Celecoxib], the IC50 [5] was 10.6 µM and the Emax [4] was 43%.

`O=c1c(-c2ccc(O)cc2)coc2cc(O)cc(O)c12` [Genistein] was tested, and the IC50 [5] was 8.41 µM and the Emax [4] was 65%.

`C=C(C)[C@H]1Cc2c(ccc3c2O[C@@H]2COc4cc(OC)c(OC)cc4[C@@H]2C3=O)O1` [Rotenone] gave an IC50 (Homo sapiens, 18 h, read-out: IC50 (primary screen, HIF-1α–NanoLuc assay)) of 0.19 µM and an Emax (Homo sapiens, read-out: Efficacy (primary screen, HIF-1α–NanoLuc assay)) of 91%.

For `CCOC(=O)C1=C(C)NC(C)=C(C(=O)OC)C1c1cccc([N+](=O)[O-])c1` (stereo not shown) [Nitrendipine], the IC50 [5] was 15 µM and the Emax [4] was 157%.

With `CC[C@@]1(O)C(=O)OCc2c1cc1n(c2=O)Cc2c-1nc1ccccc1c2/C=N/OC(C)(C)C` [Gimatecan] the IC50 [5] was 0.6 µM, the Emax [4] was 108% and the Emax [3] was 108%.

`O=c1[nH]c(=S)[nH]c(-c2ccccc2)c1Cc1c(O)ccc2ccccc12` [Cambinol] was tested, and the “Pathway inhibitors (validation) HIF-1α–NanoLuc Activity IC50” value (Table S2, validation) was “Inactive”.

For `Cn1cc(C2=C(c3cn(C4CCN(Cc5ccccn5)CC4)c4ccccc34)C(=O)NC2=O)c2ccccc21` [Enzastaurin], the Emax [3] was 39%, the IC50 [6] was 15 µM and the Emax [1] was 67 ± 6%. The IC50 [2] was 2.06 ± 3.3 µM.

With `COCCOC(=O)C1=C(C)NC(C)=C(C(=O)OC(C)C)C1c1cccc([N+](=O)[O-])c1` (stereo not shown) [Nimodipine] the IC50 [5] was 15 µM and the Emax [4] was 132%.

For `Cc1ccc(C(=O)Nc2ccc(S(=O)(=O)O)c3cc(S(=O)(=O)O)cc(S(=O)(=O)O)c23)cc1NC(=O)c1cccc(NC(=O)Nc2cccc(C(=O)Nc3cc(C(=O)Nc4ccc(S(=O)(=O)O)c5cc(S(=O)(=O)O)cc(S(=O)(=O)O)c45)ccc3C)c2)c1` [Suramin], the Emax [1] was 41 ± 7% and the IC50 [2] was 24.5 ± 3.13 µM.

For `COc1cccc2c1C(=O)c1c(O)c3c(c(O)c1C2=O)C[C@@](O)(C(=O)CO)C[C@@H]3O[C@H]1C[C@H](N)[C@H](O[C@@H]2CCCCO2)[C@H](C)O1` [Pirarubicin], the IC50 [5] was 11.9 µM and the Emax [4] was 97%.

In the case of `C[C@]1(O)C[C@@H](c2nc(-c3ccc4ccc(-c5ccccc5)nc4c3)c3c(N)nccn32)C1` [OSI-906], the IC50 (Homo sapiens, HCT-116, HCT116 reporter cells, hypoxia, read-out: HIF-1α–NanoLuc IC50) is reported as 6.23 ± 1.64 µM.

`COC(=O)C1=C(C)NC(C)=C(C(=O)OCCN2CCN(C(c3ccccc3)c3ccccc3)CC2)C1c1cccc([N+](=O)[O-])c1` (stereo not shown) [Manidipine] was tested, and the IC50 [5] was 9.44 µM and the Emax [4] was 86%.

`COc1cc(Nc2c(C#N)cnc3cc(OCCCN4CCN(C)CC4)c(OC)cc23)c(Cl)cc1Cl` [Bosutinib] showed an Emax [3] of 58% and an IC50 [6] of 11.9 µM.

Work on `Cn1nccc1Nc1nccc(-c2ccn([C@H](CO)c3ccc(Cl)c(F)c3)c(=O)c2)n1` [GDC-0994] yielded an Emax [1] of 63 ± 7% and an IC50 [2] of 6.11 ± 1.64 µM.

`Cc1c(O)cccc1C(=O)N[C@@H](CSc1ccccc1)[C@H](O)CN1C[C@H]2CCCC[C@H]2C[C@H]1C(=O)NC(C)(C)C` [Nelfinavir] gave an IC50 [5] of 21.1 µM and an Emax [4] of 120%.

`COC(=O)C1=C(C)NC(C)=C(C(=O)OC(C)(C)CN(C)CCC(c2ccccc2)c2ccccc2)C1c1cccc([N+](=O)[O-])c1` (stereo not shown) [Lercanidipine] showed an IC50 [5] of 11.9 µM and an Emax [4] of 63%.

Work on `COC(=O)C1=C(C)NC(C)=C(C(=O)OCCc2ccc(N3CCN(C(c4ccccc4)c4ccccc4)CC3)cc2)C1c1cccc([N+](=O)[O-])c1` (stereo not shown) [Vatanidipine] yielded an IC50 [5] of 1.19 µM and an Emax [4] of 103%.
